Columns and labels:
[1] = test system: HCT-116 human colon carcinoma cells; test: In vitro cytotoxicity, XTT assay; assay type: cell-based; conditions: 72 h incubation, Examples 1 and 4 as free acid, example 3 as sodium salt
[2] = test system: HCT-116/VM46 human colon carcinoma cells; test: In vitro cytotoxicity, XTT assay, multi-drug resistant line; assay type: cell-based; conditions: 72 h incubation, teniposide-selected, paclitaxel-resistant cells, Examples 1 and 4 as free acid, example 3 as sodium salt
M109 lung carcinoma [3] = test: In vivo antitumor activity, subcutaneous M109 model; design: species or system mice; conditions: for T-C / max. % T/C: once daily x5 from Day 4
[4] = test system: HCT-116 human colon carcinoma; test: HCT-116 human tumor xenograft model; assay type: in vivo; conditions: for cures (tumor-free on Day 80 post tumor implant): athymic mice, every other day x5
M109 lung carcinoma [5] = test: Mice M109 model, intraperitoneal implant; assay type: in vivo; conditions: ip M109, ip injections, d. 5 + 9, median survival
Protocol: Balb/c x DBA/2 F1 hybrid mice were implanted intraperitoneally, as described by William Rose in Evaluation of Madison 109 Lung Carcinoma as a Model for Screening Antitumor Drugs, Cancer Treatment Reports, 65, No. 3-4 (1981), with 0.5 mL of a 2% (w/v) brei of M109 lung carcinoma.
Mice were treated with compound under study by receiving intraperitoneal injections of various doses on either days 1, 5 and 9 post-tumor implant or days 5 and 8 post-implant. Mice were followed daily for survival until approximately 75 -90 days post-tumor implant. One group of mice per experiment remained untreated and served as the control group. Median survival times of compound-treated (T) mice were compared to the median survial time of the control (C) mice. The ratio of the two values for each compound-treated group of mice was multiplied by 100 and expressed as a percentage (i.e. % T/C) in Table III for representative compounds of formula (B′).

[6] = test system: A2780/cDDP human ovarian carcinoma resistant to cisplatin; test: A2780/cDDP human tumor xenograft model; assay type: in vivo; conditions: athymic mice, every other day x5
[7] = another M109 experiment, triethanolamine salt, iv, 48 mg/kg/inj.
[8] = another M109 experiment, triethanolamine salt, orally, 200 mg/kg/adm.
[9] = one M109 experiment, triethanolamine salt, iv in water, 36 mg/kg/inj.
[10] = one M109 experiment, triethanolamine salt, orally, 160 mg/kg/adm.
[11] = iv, 36 mg/kg/inj, Example 3 as triethanolamine salt
[12] = another M109 experiment, iv, 48 or 36 mg/kg/inj.
[13] = one M109 experiment, iv, 36 or 18 mg/kg/inj.
[14] = sc M109, i.v. once daily days 5-9, opt. dose 18 mg/kg/inj

Which results are given for “7-O-phosphonooxymethylpaclitaxel [Example 1]”?
IC50 [1]: 0.0158 µM; IC50 [2]: 1.24 µM; Maximum Effect T-C (M109 lung carcinoma [3]; sc M109, CDF1 mice, sodium salt, i.v. once daily days 4-8, opt. dose 45 mg/kg/inj, delay to 1 gm tumor): 14.0 days; Maximum Effect % T/C (M109 lung carcinoma [3]; sc M109, CDF1 mice, sodium salt, i.v. once daily days 4-8 post-tumor implant, opt. dose 45 mg/kg/inj, median survival): 131%; oral activity in the M109 model (M109 lung carcinoma [3]; triethanolamine salt, oral): oral activity; oral activity in the HCT-116 model ([4]; triethanolamine salt, oral): oral activity

Which “T/C (mg/kg/inj.; schedule in days)” value (M109 lung carcinoma [5]; 12 mg/kg/inj.) does the source give for `CSCO[C@H]1C[C@H]2OC[C@@]2(OC(C)=O)[C@H]2[C@H](OC(=O)c3ccccc3)[C@]3(O)C[C@H](OC(=O)[C@H](O)[C@@H](NC(=O)OC(C)(C)C)c4ccccc4)C(C)=C([C@@H](OC(C)=O)C(=O)[C@]12C)C3(C)C` [14 (b), 3′-N-debenzoyl-3′-N-(t-butoxycarbonyl)-7-O-methylthiomethylpaclitaxel] here?
The value was 143 (12; d. 5 + 9) %.

Which results are given for `CSCO[C@H]1C[C@H]2OC[C@@]2(OC(C)=O)[C@H]2[C@H](OC(=O)c3ccccc3)[C@]3(O)C[C@H](OC(=O)[C@H](O)[C@@H](NC(=O)c4ccccc4)c4ccccc4)C(C)=C([C@@H](OC(C)=O)C(=O)[C@]12C)C3(C)C` [Example 1 (a), 7-O-methylthiomethylpaclitaxel]?
IC50 [1]: 0.003 µM; IC50 [2]: 0.025 µM

Which IC50 [1] does the source give for `CCOC(=O)O[C@@H](C(=O)O[C@H]1C[C@@]2(O)[C@@H](OC(=O)c3ccccc3)[C@@H]3[C@]4(OC(C)=O)CO[C@@H]4C[C@H](OCOP(=O)(O)O)[C@@]3(C)C(=O)[C@H](OC(C)=O)C(=C1C)C2(C)C)[C@@H](NC(=O)c1ccccc1)c1ccccc1` [Example 3, 2′-O-(ethoxycarbonyl)-7-O-phosphonooxymethylpaclitaxel] here?
Its IC50 is 0.312 µM.

What about the IC50 [2] of the same compound?
The IC50 was 6.25 µM.

What about the T-C (M109 lung carcinoma [3]; [7]) of the same compound?
Its T-C is 17 days.

What about the “max. % T/C” value (M109 lung carcinoma [3]; [7]) of the same compound?
Its value is 170%.

What about the T-C (M109 lung carcinoma [3]; [8]) of the same compound?
Its T-C is 17 days.

What about the “max. % T/C” value (M109 lung carcinoma [3]; [8]) of the same compound?
The value was 172%.

What about the T-C (M109 lung carcinoma [3]; [9]) of the same compound?
The T-C was 19 days.

And the “max. % T/C” value (M109 lung carcinoma [3]; [9])?
Its value is 155%.

What about the T-C (M109 lung carcinoma [3]; [10]) of the same compound?
The T-C was 22.8 days.

And the “max. % T/C” value (M109 lung carcinoma [3]; [10])?
The value was 158%.

What about the “Maximum Effect T-C” value (M109 lung carcinoma [3]; sc M109, sodium salt, i.v. once daily days 5-9, opt. dose 24 mg/kg/inj) of the same compound?
The value was 18.8 days.

What about the “Maximum Effect % T/C” value (M109 lung carcinoma [3]; sc M109, sodium salt, i.v. once daily days 5-9 post-tumor implant, opt. dose 24 mg/kg/inj) of the same compound?
The value was 160%.

What about the “max. T-C” value [6, 11] of the same compound?
The value was 29.8 days.

What about the “max. T-C” value ([6]; orally, 160 mg/kg/adm., triethanolamine salt) of the same compound?
The value was 20 days.

And the “cures (tumor-free on Day 80 post tumor implant)” value ([4]; oral, 160 mg/kg/adm., triethanolamine salt, of 8 treated mice)?
Its value is 6.

And the “cures (tumor-free on Day 80 post tumor implant)” value ([4]; oral, 240 mg/kg/adm., triethanolamine salt, of 8 treated mice)?
Its value is 7.

`CC(=O)O[C@H]1C(=O)[C@@]2(C)[C@H]([C@H](OC(=O)c3ccccc3)[C@]3(O)C[C@H](OC(=O)[C@H](OCOP(=O)(O)O)[C@@H](NC(=O)c4ccccc4)c4ccccc4)C(C)=C1C3(C)C)[C@]1(OC(C)=O)CO[C@@H]1C[C@@H]2O` [Example 4, 2′-O-(Phosphonooxymethyl)paclitaxel] was tested. Which IC50 [1] did it give?
Its IC50 is 0.0457 µM.

And the IC50 [2]?
Its IC50 is over 6.3 µM.

Which “T/C (mg/kg/inj.; schedule in days)” value (M109 lung carcinoma [5]; 8 mg/kg/inj.) does the source give for `CCOC(=O)O[C@@H](C(=O)O[C@H]1C[C@@]2(O)[C@@H](OC(=O)c3ccccc3)[C@@H]3[C@]4(OC(C)=O)CO[C@@H]4C[C@H](OCSC)[C@@]3(C)C(=O)[C@H](OC(C)=O)C(=C1C)C2(C)C)[C@@H](NC(=O)OC(C)(C)C)c1ccccc1` [Example 15, 3′-N-debenzoyl-3′-N-(t-butoxycarbonyl)-2′-O-ethyloxycarbonyl-7-O-methylthiomethylpaclitaxel] here?
Its value is 192 (8; d. 5 + 9) %.

What does the source list for `CC(=O)O[C@@]12CO[C@@H]1C[C@H](O)[C@@]1(C)C(=O)[C@H](O)C3=C(C)[C@@H](OC(=O)[C@H](O)[C@@H](NC(=O)OC(C)(C)C)c4ccccc4)C[C@@](O)([C@@H](OC(=O)c4ccccc4)[C@H]21)C3(C)C` [Texotere ®, reference compound]?
IC50 [1]: 0.004 µM; IC50 [2]: 0.213 µM

With `CC(=O)O[C@H]1C(=O)[C@@]2(C)[C@H]([C@H](OC(=O)c3ccccc3)[C@]3(O)C[C@H](OC(=O)[C@H](O)[C@@H](NC(=O)c4ccccc4)c4ccccc4)C(C)=C1C3(C)C)[C@]1(OC(C)=O)CO[C@@H]1C[C@@H]2O` [paclitaxel, reference compound] as the compound, how does the IC50 [1] read?
The IC50 was 0.004 µM.

And the IC50 [2]?
Its IC50 is 0.44 µM.

And the “activity in sc M109 model” value (M109 lung carcinoma [3]; another M109 experiment, dissolved in cremophore/ethanol/saline, 60/mg/kg/inj.)?
Its value is “did not show activity”.

And the T-C (M109 lung carcinoma [3]; [12])?
Its T-C is 14 days.

What about the “max. % T/C” value (M109 lung carcinoma [3]; [12]) of the same compound?
Its value is 167%.

And the “activity in sc M109 model” value (M109 lung carcinoma [3]; one M109 experiment, 160 mg/kg/adm. (highest tested), suspended in water and Tween 80)?
The value was “did not show activity”.

What about the T-C (M109 lung carcinoma [3]; [13]) of the same compound?
The T-C was 13 days.

What about the “max. % T/C” value (M109 lung carcinoma [3]; [13]) of the same compound?
The value was 132%.

And the “Maximum Effect T-C” value (M109 lung carcinoma [3]; sc M109, i.v. once daily days 4-8, opt. dose 24 mg/kg/inj (lower dose gave maximum delay in tumor growth))?
The value was 14 days.

And the “Maximum Effect % T/C” value (M109 lung carcinoma [3]; sc M109, i.v. once daily days 4-8, opt. dose 48 mg/kg/inj (higher dose gave maximum increase in lifespan))?
Its value is 134%.

And the “Maximum Effect % T/C” value (M109 lung carcinoma [3]; [14])?
Its value is 151%.

What about the “Maximum Effect T-C” value (M109 lung carcinoma [3]; [14]) of the same compound?
Its value is 15 days.

And the “max. T-C” value [6, 11]?
Its value is 26.3 days.

What about the “cures (tumor-free on Day 80 post tumor implant)” value ([4]; iv, 24 mg/kg/inj., of 7 treated mice) of the same compound?
The value was 6.

And the “cures (tumor-free on Day 80 post tumor implant)” value ([4]; iv, 36 mg/kg/inj., of 8 treated mice)?
Its value is 6.
